Here are results for two compounds from patent US20080293583A1, “Methods for diagnosing mood disorders” (Wyeth, priority 2003, published 2008).

For experiment [1], the system named is progenitor stem cells in the subgranular zone (SGZ) of the hippocampus. The experiment is described as follows: BrdU immunostaining, cell proliferation in hippocampal SGZ after chronic antidepressant. Type of experiment: in vivo, rat. The conditions noted are these: P<0.01; for number of proliferating (BrdU-positive) cells in the SGZ compared with saline-treated control rats: FIG. 1A, chronic administration; for increase in the proliferation rate of progenitor stem cells in the SGZ: versus saline controls, 2 week systemic administration, BrdU twice a day for 4 days, n=5. On the procedure: Antidepressant treatment and BrdU dosing. Dosing of adult male Sprague Dawley rats was performed as described above for 14 days (n=10 rats per group). To evaluate the effect of chronic antidepressant treatment on proliferation of progenitor stem cells, 24 hours after the last antidepressant injection, rats were administered BrdU (Sigma, St. Louis, Mo.) (50 mg/kg rig ip injection twice a day) for 4 days prior to euthanesia. To evaluate the effect of chronic antidepressant treatment on survival of progenitor stem cells, a sub-group of rats were allowed to live for 4 weeks after BrdU injection. All rats were perfused through the ascending aorta with 50 ml of 0.9% saline, followed by 400 ml of freshly prepared 4% paraformaldehyde in PBS (pH 7.5). After 30-60 minutes post-perfusion, rat brains were removed and postfixed in 4% paraformaldehyde in PBS overnight, followed by immersion in 30% sucrose/PBS solution for 48-72 hours at 4° C. Brains were rapidly frozen on dry-ice and stored at −80° C. Brain sectioning and staining for BrdU immunoreactivity were performed as previously described by Malberg et al. (2000). Briefly, serial coronal sections of each brain were cut (35 μm thickness) through the entire hippocampus (stereotaxic plates 26-40 according to Paxinos, Watson and Emson, 1980) using a freezing microtome. Every sixth section throughout the hippocampus was processed for BrdU staining. Free-floating sections were maintained in 100 mM PBS (about 100 sections per brain). DNA denaturation of the sections was performed as follows: sections were treated with 50% formamide/50% 2×SSC (0.3 M NaCl/0.03 M sodium citrate) for 2 hours at 65° C., rinsed in PBS (2 times for 5 minutes at room temperature), incubated with 2 N HCl for 30 minutes, followed by 0.1 M boric acid buffer (pH 8.5) for 10 minutes and a final rinse in PBS. For BrdU immunostaining, sections were incubated with 3% H2O2 in PBS for 30 minutes, rinsed in PBS and blocked with 3% normal horse serum in 0.01% TritonX-100 for 30 minutes. […] All BrdU labeled cells in the subgranular zone (SGZ) were counted in each section by an experimenter blinded to the study code. […] The total number of BrdU labeled cells per section were determined and multiplied by 12 to obtain the total number of cells per dentate gyrus. […]
In vivo studies were performed to measure the effects of antidepressant drug treatment on adult hippocampal neurogenesis by immunological methods. […] The BrdU immunostaining and quantitative results indicated a significant increase (˜33%) in the proliferation rate of progenitor stem cells in the subgranular zone (SGZ) of the hippocampus for both venlafaxine (P<0.01; n=5) and fluoxetine (P<0.01; n=5) versus saline controls. […]

Experiment [2] shares this test system. The experiment is described as follows: BrdU immunostaining, long-term survivability of progenitor stem cells in SGZ. Type of experiment: in vivo, rat. The conditions noted are these: for number of surviving cells in the SGZ relative to saline controls / basal levels: 4 weeks after the last BrdU injection. Here is the method: Antidepressant treatment and BrdU dosing. Dosing of adult male Sprague Dawley rats was performed as described above for 14 days (n=10 rats per group). To evaluate the effect of chronic antidepressant treatment on proliferation of progenitor stem cells, 24 hours after the last antidepressant injection, rats were administered BrdU (Sigma, St. Louis, Mo.) (50 mg/kg rig ip injection twice a day) for 4 days prior to euthanesia. To evaluate the effect of chronic antidepressant treatment on survival of progenitor stem cells, a sub-group of rats were allowed to live for 4 weeks after BrdU injection. All rats were perfused through the ascending aorta with 50 ml of 0.9% saline, followed by 400 ml of freshly prepared 4% paraformaldehyde in PBS (pH 7.5). After 30-60 minutes post-perfusion, rat brains were removed and postfixed in 4% paraformaldehyde in PBS overnight, followed by immersion in 30% sucrose/PBS solution for 48-72 hours at 4° C. Brains were rapidly frozen on dry-ice and stored at −80° C. Brain sectioning and staining for BrdU immunoreactivity were performed as previously described by Malberg et al. (2000). Briefly, serial coronal sections of each brain were cut (35 μm thickness) through the entire hippocampus (stereotaxic plates 26-40 according to Paxinos, Watson and Emson, 1980) using a freezing microtome. Every sixth section throughout the hippocampus was processed for BrdU staining. Free-floating sections were maintained in 100 mM PBS (about 100 sections per brain). DNA denaturation of the sections was performed as follows: sections were treated with 50% formamide/50% 2×SSC (0.3 M NaCl/0.03 M sodium citrate) for 2 hours at 65° C., rinsed in PBS (2 times for 5 minutes at room temperature), incubated with 2 N HCl for 30 minutes, followed by 0.1 M boric acid buffer (pH 8.5) for 10 minutes and a final rinse in PBS. For BrdU immunostaining, sections were incubated with 3% H2O2 in PBS for 30 minutes, rinsed in PBS and blocked with 3% normal horse serum in 0.01% TritonX-100 for 30 minutes. Anti-mouse BrdU (1:250 Sigma) was applied to the free-floating sections and incubated overnight at 4° C. The sections were rinsed in PBS, incubated with biotinylated horse, anti-mouse IgG (Vector Lab) for 30 minutes and washed in PBS. ABC reagent complex (Vectastain Elite kit from Vector) was added (as per manufacturer's instructions) for 30 minutes, followed by rinsing in PBS and color development with DAB solution for 4 minutes. Sections were mounted on glass slides and coverslipped. All BrdU labeled cells in the subgranular zone (SGZ) were counted in each section by an experimenter blinded to the study code. All counts were performed at 200× magnification using a light microscope (Zeiss Axiovert 135). The total number of BrdU labeled cells per section were determined and multiplied by 12 to obtain the total number of cells per dentate gyrus. Comparative analyses between treatments were performed using a Tukey HSD post hoc analysis for multiple comparisons.
In vivo studies were performed to measure the effects of antidepressant drug treatment on adult hippocampal neurogenesis by immunological methods. The method used to detect cell proliferation involved 5-bromo-2-deoxyuridine (BrdU) dosing twice a day for 4 days after a 2 week systemic administration of either saline, fluoxetine or venlafaxine. The presence of BrdU within the vicinity of dividing progenitor stem cells in the hippocampal region allowed for its incorporation and the detection of DNA synthesis (the more cell proliferation the more DNA synthesis). The number of BrdU-positive cells was visualized by immunoperoxidase staining. The BrdU immunostaining and quantitative results indicated a significant increase (˜33%) in the proliferation rate of progenitor stem cells in the subgranular zone (SGZ) of the hippocampus for both venlafaxine (P<0.01; n=5) and fluoxetine (P<0.01; n=5) versus saline controls. […]

For `CNCCC(Oc1ccc(C(F)(F)F)cc1)c1ccccc1` (stereo not shown) [Fluoxetine, fluoxetine], in experiment [1], the “number of proliferating (BrdU-positive) cells in the SGZ compared with saline-treated control rats” value is on record as “increased the number of proliferating cells in the SGZ” and the “increase in the proliferation rate of progenitor stem cells in the SGZ” value is listed as ~33%. In addition, the “number of surviving cells in the SGZ relative to saline controls / basal levels” value in experiment [2] (FIG. 1B) was “significant preservation of proliferative and survivability effects over basal levels”. The “number of surviving cells in the SGZ relative to saline controls / basal levels” value in experiment [2] (FIG. 1B, listed as fluoxetine) was “increased the number of surviving cells in the SGZ”.
Take `COc1ccc(C(CN(C)C)C2(O)CCCCC2)cc1` (stereo not shown) [Venlafaxine, venlafaxine]: in experiment [1], the “number of proliferating (BrdU-positive) cells in the SGZ compared with saline-treated control rats” value was “increased the number of proliferating cells in the SGZ” and the “increase in the proliferation rate of progenitor stem cells in the SGZ” value is ~33%. Moreover, the “sustainability in the rate of proliferation and survivability of progenitor stem cells over basal levels” value in experiment [2] (4 weeks after the last antidepressant dose) is on record as 80%. Further, the “number of surviving cells in the SGZ relative to saline controls / basal levels” value in experiment [2] (FIG. 1B) is recorded as “increased the number of surviving cells in the SGZ”. For the same compound, the “overall number of surviving cells, venlafaxine versus fluoxetine” value in experiment [2] (FIG. 1B, P<0.01) is “significant increase in the overall number of surviving cells”. Besides, the “more cells compared with fluoxetine” value in experiment [2] (long-term survivability, venlafaxine versus fluoxetine) was ~40%.
